{"source": "paper PMC3425665", "about": "(Journal of the American Chemical Society, 2012)", "biological_target": "aspartate aminotransferase (AAT), K258A mutant (Escherichia coli, UniProt P00509, K246A, form not given)", "sequence (P00509 whole entry K246A, form open)": "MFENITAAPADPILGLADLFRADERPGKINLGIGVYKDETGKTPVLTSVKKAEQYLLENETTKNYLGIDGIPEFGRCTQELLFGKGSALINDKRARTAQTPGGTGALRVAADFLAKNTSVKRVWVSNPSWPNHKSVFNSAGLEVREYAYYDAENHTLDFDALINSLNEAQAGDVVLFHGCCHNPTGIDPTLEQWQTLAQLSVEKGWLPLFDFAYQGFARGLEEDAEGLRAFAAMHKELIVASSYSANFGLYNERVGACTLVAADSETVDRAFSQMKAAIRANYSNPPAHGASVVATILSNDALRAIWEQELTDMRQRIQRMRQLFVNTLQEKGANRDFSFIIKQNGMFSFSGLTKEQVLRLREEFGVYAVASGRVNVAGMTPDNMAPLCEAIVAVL", "assay": "X-ray crystallography", "format": "binding", "details": "covalent external aldimine with L-aspartate; replaces PLP"}
{"smiles": "Cc1ccc(COP(=O)(O)O)c(C=O)c1O", "note": "[deazaPLP]", "values": [{"measurement": "X-ray crystallography (1.5 Å)", "result": "structure of the K258A/deazaPLP/L-aspartate external aldimine intermediate determined here by X-ray crystallography"}]}
